Measurements published in ChEMBL document CHEMBL1201862, “PubChem BioAssay data set” (2004).
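1) Cells in 96-well plates. 2) Compound, 48 h, 5 concentrations. 3) Linear interpolation between surrounding doses. 4) Unreached endpoint = highest concentration. GI50 = concentration required for 50% inhibition of growth.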 The source made the active and inactive calls. No stated cut-off is given here; in the data, active = GI50 up to about 1.1 µM and inactive = higher.

Assays:
Assay in all cases: NCI-60 cell line screen, 48 h
[1] = tested on: IGROV-1
[2] = tested on: SF-295
[3] = tested on: DU-145
[4] = tested on: OVCAR-3
[5] = tested on: PC-3
[6] = tested on: UACC-62
[7] = tested on: SW-620
[8] = tested on: 786-0
[9] = tested on: SR
[10] = tested on: SNB-19
[11] = tested on: NCI-H23
[12] = tested on: SK-MEL-2
[13] = tested on: OVCAR-4
[14] = tested on: CAKI-1
[15] = tested on: SF-539
[16] = tested on: MCF7
[17] = tested on: LOX IMVI
[18] = tested on: OVCAR-5
[19] = tested on: BT-549
[20] = tested on: HOP-92
[21] = tested on: MDA-N
[22] = tested on: NCI-H522
[23] = tested on: Hs-578T
[24] = tested on: OVCAR-8
[25] = tested on: UACC-257
[26] = tested on: SF-268
[27] = tested on: Malme-3M
[28] = tested on: HCT-116
[29] = tested on: HT-29
[30] = tested on: CCRF-CEM
[31] = tested on: T47D
[32] = tested on: ACHN
[33] = tested on: SK-MEL-5
[34] = tested on: HCC 2998
[35] = tested on: KM12
[36] = tested on: COLO 205
[37] = tested on: SN12C
[38] = tested on: MOLT-4
[39] = tested on: MDA-MB-435
[40] = tested on: UO-31
[41] = tested on: SK-MEL-28
[42] = tested on: SNB-75
[43] = tested on: NCI-H460
[44] = tested on: SK-OV-3
[45] = tested on: M14
[46] = tested on: A549
[47] = tested on: HOP-62
[48] = tested on: NCI/ADR-RES
[49] = tested on: TK-10
[50] = tested on: NCI-H226
[51] = tested on: HCT-15
[52] = tested on: RPMI-8226
[53] = tested on: MDA-MB-231
[54] = tested on: U-251
[55] = tested on: HL-60
[56] = tested on: EKVX
[57] = tested on: RXF 393
[58] = tested on: A498
[59] = tested on: K562

CC1OC2OC3C(OCC(O)C3O)OC(=O)[C@]34CCC(C)(C)CC3C3=CCC5[C@@]6(C)C[C@H](O)[C@H](OC7OC(CO)C(O)C(O)C7OC7OCC(OC(=O)CC(C)(O)CC(=O)OC1C(OC1OC(CO)C(O)C(O)C1O)C2O)C(O)C7O)[C@@](C)(CO)C6CC[C@@]5(C)[C@]3(C)CC4 (stereo partly specified)
GI50 [1]: 7.53 µM (inactive)
GI50 [2]: 4.06 µM (inactive)
GI50 [3]: 8.09 µM (inactive)
GI50 [4]: 9.77 µM (inactive)
GI50 [5]: 7.91 µM (inactive)
GI50 [6]: 9.73 µM (inactive)
GI50 [7]: 9.35 µM (inactive)
GI50 [8]: 4.83 µM (inactive)
GI50 [9]: 7 µM (inactive)
GI50 [10]: 11.4 µM (inactive)
GI50 [11]: 4.33 µM (inactive)
GI50 [12]: 4.18 µM (inactive)
GI50 [13]: 6.25 µM (inactive)
GI50 [14]: 6.41 µM (inactive)
GI50 [15]: 13.5 µM (inactive)
GI50 [16]: 12 µM (inactive)
GI50 [17]: 10.6 µM (inactive)
GI50 [18]: 8.91 µM (inactive)
GI50 [19]: 9.27 µM (inactive)
GI50 [20]: 10.3 µM (inactive)
GI50 [21]: 2.44 µM (inactive)
GI50 [22]: 11.6 µM (inactive)
GI50 [23]: 14.6 µM (inactive)
GI50 [24]: 12.3 µM (inactive)
GI50 [25]: 3.48 µM (inactive)
GI50 [26]: 10.8 µM (inactive)
GI50 [27]: 7.87 µM (inactive)
GI50 [28]: 7.11 µM (inactive)
GI50 [29]: 7.78 µM (inactive)
GI50 [30]: 12.3 µM (inactive)
GI50 [31]: 9.46 µM (inactive)
GI50 [32]: 8.3 µM (inactive)
GI50 [33]: 11.6 µM (inactive)
GI50 [34]: 2.43 µM (inactive)
GI50 [35]: 8.53 µM (inactive)
GI50 [36]: 2.3 µM (inactive)
GI50 [37]: 12.2 µM (inactive)
GI50 [38]: 10.3 µM (inactive)
GI50 [39]: 2.45 µM (inactive)
GI50 [40]: 4.47 µM (inactive)
GI50 [41]: 1.97 µM (inactive)
GI50 [42]: 11.5 µM (inactive)
GI50 [43]: 12 µM (inactive)
GI50 [44]: 12.4 µM (inactive)
GI50 [45]: 3.41 µM (inactive)
GI50 [46]: 3.85 µM (inactive)
GI50 [47]: 1.44 µM (inactive)
GI50 [48]: 8.32 µM (inactive)
GI50 [49]: 10.8 µM (inactive)
GI50 [50]: 17.2 µM (inactive)
GI50 [51]: 12 µM
GI50 [52]: 10.6 µM (inactive)
GI50 [53]: 10.9 µM (inactive)
GI50 [54]: 8.71 µM (inactive)
GI50 [55]: 1.8 µM (inactive)

COc1cc2c(cc1OC)C1C(O)C(OC)C=C3CC[N+](C)(C2)C31 (stereo unspecified)
GI50 [1]: > 100 µM (inactive)
GI50 [2]: > 100 µM (inactive)
GI50 [3]: > 100 µM (inactive)
GI50 [4]: > 100 µM (inactive)
GI50 [5]: > 100 µM (inactive)
GI50 [6]: > 100 µM (inactive)
GI50 [7]: > 100 µM (inactive)
GI50 [8]: > 100 µM (inactive)
GI50 [10]: > 100 µM (inactive)
GI50 [56]: > 100 µM (inactive)
GI50 [11]: > 100 µM (inactive)
GI50 [12]: > 100 µM (inactive)
GI50 [13]: > 100 µM (inactive)
GI50 [14]: > 100 µM (inactive)
GI50 [15]: > 100 µM (inactive)
GI50 [16]: > 100 µM (inactive)
GI50 [18]: > 100 µM (inactive)
GI50 [19]: > 100 µM (inactive)
GI50 [20]: > 100 µM (inactive)
GI50 [21]: > 100 µM (inactive)
GI50 [22]: > 100 µM (inactive)
GI50 [23]: > 100 µM (inactive)
GI50 [24]: > 100 µM (inactive)
GI50 [57]: > 100 µM (inactive)
GI50 [25]: > 100 µM (inactive)
GI50 [26]: > 100 µM (inactive)
GI50 [27]: > 100 µM (inactive)
GI50 [28]: > 100 µM (inactive)
GI50 [29]: > 100 µM (inactive)
GI50 [30]: > 100 µM (inactive)
GI50 [31]: > 100 µM (inactive)
GI50 [32]: > 100 µM (inactive)
GI50 [33]: > 100 µM (inactive)
GI50 [34]: > 100 µM (inactive)
GI50 [35]: > 100 µM (inactive)
GI50 [36]: > 100 µM (inactive)
GI50 [37]: > 100 µM (inactive)
GI50 [38]: > 100 µM (inactive)
GI50 [39]: > 100 µM (inactive)
GI50 [40]: > 100 µM (inactive)
GI50 [41]: > 100 µM (inactive)
GI50 [42]: > 100 µM (inactive)
GI50 [43]: > 100 µM (inactive)
GI50 [44]: > 100 µM (inactive)
GI50 [45]: > 100 µM (inactive)
GI50 [46]: > 100 µM (inactive)
GI50 [47]: > 100 µM (inactive)
GI50 [48]: > 100 µM (inactive)
GI50 [49]: > 100 µM (inactive)
GI50 [50]: > 100 µM (inactive)
GI50 [51]: > 100 µM
GI50 [52]: > 100 µM (inactive)
GI50 [53]: > 100 µM (inactive)
GI50 [54]: > 100 µM (inactive)
GI50 [55]: > 100 µM (inactive)
GI50 [58]: > 100 µM (inactive)

NC(=O)NC1C(c2ccccc2)=C1c1ccccc1
GI50 [1]: 12.7 µM (inactive)
GI50 [2]: 17.6 µM (inactive)
GI50 [3]: 41.3 µM (inactive)
GI50 [4]: 28.9 µM (inactive)
GI50 [5]: 17.1 µM (inactive)
GI50 [6]: 9.23 µM (inactive)
GI50 [7]: 13.7 µM (inactive)
GI50 [8]: 22.4 µM (inactive)
GI50 [10]: 34.8 µM (inactive)
GI50 [56]: 26.8 µM (inactive)
GI50 [11]: 21.2 µM (inactive)
GI50 [13]: 15.3 µM (inactive)
GI50 [14]: 18.9 µM (inactive)
GI50 [15]: 15.4 µM (inactive)
GI50 [16]: 14.7 µM (inactive)
GI50 [17]: 13.5 µM (inactive)
GI50 [18]: 23.2 µM (inactive)
GI50 [19]: 12.6 µM (inactive)
GI50 [20]: 11.9 µM (inactive)
GI50 [21]: 14.5 µM (inactive)
GI50 [59]: 15.4 µM (inactive)
GI50 [23]: 27.6 µM (inactive)
GI50 [24]: 12.5 µM (inactive)
GI50 [57]: 3.41 µM (inactive)
GI50 [25]: 18.6 µM (inactive)
GI50 [26]: 13.4 µM (inactive)
GI50 [27]: 21.1 µM (inactive)
GI50 [28]: 15.7 µM (inactive)
GI50 [29]: 21.7 µM (inactive)
GI50 [30]: 5.47 µM (inactive)
GI50 [31]: 69.5 µM (inactive)
GI50 [32]: 10.6 µM (inactive)
GI50 [33]: 11.1 µM (inactive)
GI50 [34]: 16.5 µM (inactive)
GI50 [35]: 19.2 µM (inactive)
GI50 [36]: 13 µM (inactive)
GI50 [37]: 13.6 µM (inactive)
GI50 [38]: 4.88 µM (inactive)
GI50 [39]: 18.7 µM (inactive)
GI50 [40]: 13.6 µM (inactive)
GI50 [41]: 17.1 µM (inactive)
GI50 [43]: 15.5 µM (inactive)
GI50 [44]: 15.6 µM (inactive)
GI50 [45]: 19.1 µM (inactive)
GI50 [46]: 27.4 µM (inactive)
GI50 [47]: 36.4 µM (inactive)
GI50 [48]: 10.5 µM (inactive)
GI50 [49]: 18 µM (inactive)
GI50 [50]: 5.08 µM (inactive)
GI50 [51]: 13.6 µM
GI50 [52]: 7.21 µM (inactive)
GI50 [53]: 12.6 µM (inactive)
GI50 [54]: 13.9 µM (inactive)
GI50 [55]: 31.6 µM (inactive)
GI50 [58]: 15 µM (inactive)
